The source of these data is US20200246268A1, “CPZEN COMPOSITIONS AND USES” (PAI Life Sciences Inc., priority 2017, published 2020).

Where “and” joins values, the source holds several entries; their conditions need not be identical. Equal values may be shown once.

Data set [1] is classed as physicochemical. As to conditions: base treatment (0.1 M NaOH, pH=12.8, 72 hours). The protocol:
Prior to evaluating the long-term stability of a spray-dried combination powder, multiple forced degradations on capreomycin and CPZEN-45 were performed before determining the chromatographic profile of treated materials and monitoring absorbance at 265 nm using a Shimadzu RP-HPLC unit. By this method, it was confirmed that it was possible to detect drug degradation as well as any degradants generated.
Forced degradations were performed by subjecting aqueous solutions of non-spray-dried capreomycin or CPZEN-45 at 0.1 mg/mL to multiple conditions (all at 23° C. unless noted otherwise): control (no treatment, 72 hours), acid (0.1 M HCl, pH=1.2, 72 hours), base (0.1 M NaOH, pH=12.8, 72 hours), oxidizer (3% w/v 2Na2CO3 3H2O2 (sodium percarbonate), 72 hours), 60° C. for 72 hours, or 90° C. for 30 minutes.
Capreomycin and CPZEN-45 content for forced degradation, stability, and impactor studies was measured by RP-HPLC with a Shimadzu system consisting of an SCL-10AVP system controller, two LC-10ADVP pumps, a DGU-14A degasser, SIL-10A autoinjector, and SPD-M10AVP diode array detector. […] All peaks were detected at wavelength 265 nm. Linearity for total capreomycin was obtained between 1 and 75 μg/mL (R^2=0.996) with a limit of detection (LOD) of 0.74 μg/mL. Linearity for CPZEN-45 was obtained between 0.5 and 100 μg/mL (R^2=0.996) with an LOD of 1.03 μg/mL. […]

Data set [2] can be described thus: Accelerated stability study: assay and related substances by HPLC. The following applies: for CPZEN-45 assay by HPLC / Related Substances by HPLC: CPZEN-45 API. In kind it is physicochemical. Here is the method:
Drugs were stored either individually as a free-flowing powder, as a 1:1 spray-dried formulation of capreomycin and CPZEN-45 as a free-flowing powder, or as a 1:1 spray-dried formulation in #3 hydroxypropylmethylcellulose (HPMC) capsules. All samples were deposited into 5 mL screw-top glass vials. Samples were collected at the beginning of the study, after 1 week, 1 month, 3 months, and 6 months. HPLC-based methods for detecting CPZEN-45, capreomycin, and degradation products are described in the “Methods” section below.
Capreomycin and CPZEN-45 content for forced degradation, stability, and impactor studies was measured by RP-HPLC with a Shimadzu system consisting of an SCL-10AVP system controller, two LC-10ADVP pumps, a DGU-14A degasser, SIL-10A autoinjector, and SPD-M10AVP diode array detector. […] All peaks were detected at wavelength 265 nm. Linearity for total capreomycin was obtained between 1 and 75 μg/mL (R^2=0.996) with a limit of detection (LOD) of 0.74 μg/mL. Linearity for CPZEN-45 was obtained between 0.5 and 100 μg/mL (R^2=0.996) with an LOD of 1.03 μg/mL.

The next data set has as its system porcine stomach mucin. The data set can be described thus: Mucin binding dialysis assay. The protocol:
Mucin binding was evaluated using a dialysis assay developed previously (Huang et al., 2015). Briefly, 100 μL of capreomycin, CPZEN-45, or a 50:50 combination of both at 4 mg/mL per drug was suspended in 900 μL Dulbecco's PBS without calcium or magnesium (Lonza, Cat. #17-512F) either with or without 12.5% (wt./vol) porcine stomach mucin (Sigma-Aldrich, Cat. #M1778, type III, bound sialic acid 0.5% to 1.5%, partially purified powder). The resulting mixtures were placed in Spectra/Por dialysis bags (6- to 8-kDa molecular mass cutoff, 32-mm flat width, 20.4-mm diameter; 3.3-ml/cm volume; Spectrum Laboratories, Cat. #132655, Rancho Dominguez, Calif.), with the tube ends closed using standard dialysis bag closures. […] Dialysate samples (200 μl) were collected at 10, 60, 120, and 240 minutes and the antibiotic concentration within each dialysate was determined by HPLC UV/vis analysis. The percentage of each antibiotic detected in the dialysate was calculated relative to the theoretical total concentration based on 400 μg of antibiotic in an 11-ml total volume. […]
Colistin sulfate content was measured via mass spectrometry on an Agilent 6460 Triple Quadrupole LC/MS System with a Waters Cortecs UPLC C18 1.6 2.1×50 mm column.

The conditions of data set [3]: in vivo; cited from earlier work.
The mark [4] stands for this setting: 40° C./75% RH table, T = 3 MON, footnote: due to melting values after month 3 are 30° C./60% RH.
Setting [5] is: 40° C./75% RH table, T = 6 MON, footnote: due to melting values after month 3 are 30° C./60% RH.

As for `CCCCc1ccc(NC(=O)C2=CCN(C)[C@@H]([C@H](O[C@@H]3O[C@H](CN)[C@@H](O)[C@H]3O)[C@H]3O[C@@H](n4ccc(=O)[nH]c4=O)[C@H](O)[C@@H]3O)C(=O)N2C)cc1` [CPZEN-45], in data set [1], the “Loss of the original mass of intact compound” value was “approximately 88%”. Besides, in data set [2], the “Stability in accelerated stability studies” value is “highly stable”. In addition, the “CPZEN-45 assay by HPLC” value in data set [2] (25° C./60% RH, T = 0, replicates 1-3 and average ± RSD) was 98.1% and 98.0% and 95.3%; in data set [2] (25° C./60% RH, T = 1 MON, replicates 1-3 and average ± RSD), 100.7% and 98.0% and 99.5%; in data set [2] (25° C./60% RH, T = 1 WEEK, replicates 1-3 and average ± RSD), 96.2% and 95.8% and 97.1%; in data set [2] (25° C./60% RH, T = 3 MON, replicates 1-3 and average ± RSD), 98.0% and 103.2%; in data set [2] (25° C./60% RH, T = 6 MON, replicates 1-3 and average ± RSD), 97.2% and 98.4% and 97.1%; in data set [2] (setting [4]) it was 97.2% and 101.0% and 102.8%. The “CPZEN-45 assay by HPLC” value in data set [2] (setting [5]) was 96.5% and 98.0% and 97.5%; in data set [2] (40° C./75% RH, T = 0, replicates 1-3 and average ± RSD), 98.1% and 98.0% and 95.3%; in data set [2] (40° C./75% RH, T = 1 MON, replicates 1-3 and average ± RSD) it was 100.3% and 96.0% and 94.4%; in data set [2] (40° C./75% RH, T = 1 WEEK, replicates 1-3 and average ± RSD), 96.1% and 96.4% and 95.9%. The “Related Substances by HPLC” value was 0.7% in data set [2] (25° C./60% RH, T = 1 MON, replicates 1-3 and average); 0.4% in data set [2] (25° C./60% RH, T = 1 WEEK, replicates 1-3 and average); 0.4% and 0.6% in data set [2] (25° C./60% RH, T = 3 MON, replicates 1-3 and average); 0.8% in data set [2] (25° C./60% RH, T = 6 MON, replicates 1-3 and average); 0.6% and 0.8% in data set [2] (setting [4]); 1.4% and 1.2% in data set [2] (setting [5]). For the same compound, the “Related Substances by HPLC” value in data set [2] (40° C./75% RH, T = 1 MON, replicates 1-3 and average) is 2.5% and 1.8% and 2.0%; in data set [2] (40° C./75% RH, T = 1 WEEK, replicates 1-3 and average), 0.5%. The “Percentage of efflux in the presence of mucin relative to samples without mucin” value in the data set on porcine stomach mucin (not told) was 48%. For the same compound, in data set [3], the Oral availability entry was “not orally available due to poor absorption from the gastrointestinal tract”.
colistin sulfate: the “Percentage of efflux in the presence of mucin relative to samples without mucin” value with porcine stomach mucin (after 4 hours, drug alone, 12.5% porcine stomach mucin, 37° C.) was 20%.
